A short description of test [1]: Inhibition of recombinant Plasmodium falciparum NDH2 expressed in Escherichia coli ANN0222 by spectrophotometry.
Test [2] has as its system Plasmodium falciparum. The test can be described thus: Antimalarial activity against blood stage form of Plasmodium falciparum 3D7 infected in human erythrocytes after 48 hrs by SYBR Green-based fluorometry. The format is functional, organism-based. The note with it: 3D7, 48 h.

Experimental findings from ChEMBL document CHEMBL2034827, “Identification of novel antimalarial chemotypes via chemoinformatic compound selection methods for a high-throughput screening program against the novel malarial target, PfNDH2: increasing hit rate via virtual screening methods” (J Med Chem, 2012) are described below.

The term IC50 denotes the concentration at which inhibition is half-maximal.

Structures are written as SMILES.

With `CSc1nc2cc(Oc3ccc(Cl)c4ccccc34)c(Cl)cc2[nH]1`, the IC50 in test [1] came to 1040 nM; in test [2] it was 2080 nM. Regarding `O=C(Nc1ccc(F)c(F)c1)C1CCC(Cn2cnc3ccccc3c2=O)CC1` (stereo unspecified), the IC50 was 1360 nM in test [1] and 2080 nM in test [2]. As to `CC(C)(Cc1cc(=O)c2ccccc2[nH]1)C1CCCCC1`, the IC50 in test [1] is 78 nM; in test [2], 3800 nM. Regarding `O=C1NC(=O)N(C2CCCCC2)C(=O)/C1=C/c1c(-c2ccccc2)[nH]c2ccccc12`, the IC50 in test [1] worked out at 512 nM; in test [2] it was 5560 nM. As to `CCn1cc(C(=O)NCc2ccc(Cl)cc2)c(=O)c2cc(F)c(N3CCN(C(=O)c4ccco4)CC3)cc21`, the IC50 turned out to be 295 nM in test [1] and 5000 nM in test [2].

As to `CCCCCCCCCCCCc1cc(=O)c2ccccc2n1O`, in test [1], the IC50 came to 70 nM.
